Earlier results in patent publication US8598325B2, “Solid-phase microextraction coatings and methods for their preparation” (priority 2002, dated 2013).
Where two headings read alike, the source gives them in different places.

Key:
[1] = not given; remark: listed apart in the source
[2] = at 25° C.

SMILES	LogP (pH 7)	Sol. in water [1]	LogP (at pH 7, 20° C.)	Vapour Pressure [2]
CCCCC(O)(Cn1cncn1)c1ccc(Cl)cc1Cl (centres unmarked) [Hexaconazole, hexaconazole]	3.9	–	–	–
CC(C)(C)C(O)C(Oc1ccc(Cl)cc1)n1cncn1 (centres unmarked) [Triadimenol, triadimenol]	3.18	–	–	–
CC(C)(C)C(=O)C(Oc1ccc(Cl)cc1)n1cncn1 (centres unmarked) [Triadimefon, triadimefon]	–	70 mg/L	3.18	0.02 mPa
CCCC(Cn1cncn1)c1ccc(Cl)cc1Cl (centres unmarked) [Penconazole, penconazole]	3.72	73 mg/L	–	0.366 mPa
